# Results reported in patent publication US11136291B2, “Antifungal compounds and uses thereof” (Dana-Farber Cancer Institute, Inc., priority 2016, dated 2021).
# Entries after “also recorded” stand apart in the source; their conditions may differ.
# Tests used:
# [1] = tested on: CgCDR1 transcription (CgPdr1 target); assay: Transcription assay, quantitative real-time PCR of CgPdr1 target genes; assay type: cell-based, Candida glabrata
# [2] = tested on: Candida parapsilosis DSY473; assay: Broth dilution MIC; settings: ATCC22019
# Procedure: (§1) Antifungal susceptibility testing was carried out using broth dilution assays which examined effects of two-fold dilutions of compounds on cellular growth. The minimum inhibitory concentration (MIC) was defined as the drug concentration at which the optical density was equal to or decreased more than 50% from that of the drug-free culture.
# Candida glabrata DSY565 = assay: Broth dilution MIC; settings: Nakaseomyces glabratus
# Procedure: as §1
# C. glabrata = assay: Mouse disseminated fungal burden model; assay type: in vivo; settings: for fungal burden (CFU/g kidney): Cgpdr1 null strain (SFY93)
# [3] = tested on: C. glabrata PDR1 wild-type or PDR1^L280F strains; assay: Galleria mellonella survival assay; assay type: in vivo
# [4] = tested on: C. glabrata adherence to CHO-Lec2 cells; assay: Yeast adherence to epithelial CHO-Lec2 cells; settings: PDR1^L280F mutant; 30 μM iKIX1 or 40 μM ketoconazole
# Candida glabrata DSY562 = assay: Broth dilution MIC; settings: Nakaseomyces glabratus
# Procedure: as §1
# [5] = In vitro stability (plasma, microsomes) and in vivo mouse pharmacokinetics
# Procedure: Microsome stability assays were performed as previously described (see, e.g., Choi J Y, Calvet C M, Gunatilleke S S, Ruiz C, Cameron M D, McKerrow J H, et al. Rational development of 4-aminopyridyl-based inhibitors targeting Trypanosoma cruzi CYP51 as anti-chagas agents. J Med Chem. 56(19):7651-68. PMCID: 3864028); for plasma stability, 100% freshly drawn plasma in LiHeparin was used with similar sampling and sample preparation with no addition of microsomes, buffer or NADPH.
# Male Swiss albino mice were dosed via tail vein (IV; intravenous, solution in 5% NMP and 10% solutol in saline, dose: 2 mg/kg) or via oral gavage (PO; suspensions in 0.5% w/v Na CMC with 0.1% v/v Tween-80 in water). Blood and brain samples were collected at 0, 0.083 (for IV only), 0.25, 0.5, 1, 2, 4, 6 (for PO only), 8, 12, and 24 hours for the IV and PO groups. The blood samples were collected from sets of three mice at each time point. Plasma samples were separated by centrifugation and stored below −70° C. until analysis. Brain samples were homogenized using ice-cold phosphate buffer saline (pH 7.4) and homogenates were stored below −70° C. until analysis. All samples were processed and analyzed by […] (LLOQ, 2.03 ng/mL for plasma and 10.16 ng/mL for brain). Pharmacokinetic parameters were calculated using the noncompartmental analysis tool of Phoenix WinNonlin (version 5.3).
# [6] = tested on: Candida tropicalis DSY472; assay: Broth dilution MIC; settings: ATCC75
# Procedure: as §1
# Candida krusei DSY471 = assay: Broth dilution MIC; settings: Pichia kudriavzevii, ATCC6258
# Procedure: as §1
# [7] = tested on: PDRE-dependent luciferase gene transcription; assay type: cell-based, Saccharomyces cerevisiae; settings: 40 μM ketoconazole
# S. cerevisiae = assay: Cell growth inhibition screen with 5 μM ketoconazole; settings: in the presence of 5 μM ketoconazole
# Procedure: S. cerevisiae SEY6210 wild-type strains were grown in YPD (U % yeast extract, 2% bacto peptone, 2% dextrose) at 30° C. with shaking overnight until saturation. The next day, cultures were inoculated to an OD600 of 0.0007 and grown for 17 hours, to an OD600˜0.5, 384-well plates were set up in duplicate with either YPD alone or with YPD containing a final concentration of 5 μM ketoconazole. 384-well plates contained 5 two-fold dilutions of each compound, corresponding to a final concentration range of 20 μg/mL to 1.25 μg/mL. Wells were inoculated with cells to a final OD600 of 0.00025 in YPD.
# [8] = tested on: C. glabrata CgPDR1 wild-type and gain-of-function mutant strains; assay: Spot plating on gradient plates with azole; assay type: cell-based, Candida glabrata
# SREBP-target genes = assay: Transcription of SREBP-target genes in HepG2 cells; assay type: cell-based, Human; settings: concentrations up to 100 μM, 24 hours
# Procedure: For transcription assays, HepG2 cells were seeded in MEM+10% FBS on 12-well poly-D-lysine-coated plates at a concentration of 175,000 cells per mL. After cells attached (4 hours), media was aspirated and iKIX1 was added in fresh MEM+10% FBS to final concentrations indicated. Cells were treated with iKIX1 for 24 hours before RNA was isolated using Trizol according to manufacturer's instructions. Quantitative real-time RT-PCR was carried out as described above.
# [9] = tested on: azole-activated and Pdr1-dependent genes; assay: RNA-Seq; settings: 10 μM iKIX1 with 40 μM ketoconazole
# Procedure: Cells were grown in YPD at 30° C. with shaking overnight (24 hours) then washed twice in 2× volume of Milli-Q water before being resuspended in YP to an OD600 of 0.8. Cells were grown with shaking overnight (˜16 hours) before splitting and treatment with vehicle (DMSO) or 10 μM iKIX1. Cells were grown with shaking another 8 hours before harvest of non-azole induced samples. Remaining cultures were induced to a final concentration of 40 μM ketoconazole and harvested after 15 minutes by centrifugation at 4,000 rpm for 4 minutes at 4° C. Media was aspirated and cells were snap frozen on dry ice. RNA isolation was performed as previously described (see, e.g., Martin R, Moran G P, Jacobsen I D, Heyken A, Domey J, Sullivan D J, et al. The Candida albicans-specific gene EED1 encodes a key regulator of hyphal extension. PLoS One.6(4):e18394. PMCID: 3075580); RNA was then DNase treated using recombinant DNasel. […] Sequencing was carried out on Illumina HiSeq 2500, resulting in approximately 17.68 million of 50 bp paired-end reads per sample. STAR aligner was used to map sequencing reads to transcripts in the reference genomes (S288C for Saccharomyces cerevisiae and draft genome from isolate DSY562 for Candida glabrata) (see, e.g., Dobin A, Davis C A, Schlesinger F, Drenkow J, Zaleski C, Jha S, et al. STAR: ultrafast universal RNA-seq aligner. Bioinformatics.29(1):15-21. PMCID: 3530905). […]
# [10] = tested on: rhodamine 6G efflux in C. glabrata; assay: Rhodamine 6G efflux assay; assay type: cell-based, Candida glabrata; settings: PDR1 wild-type or gain-of-function strains, iKIX1 pre-treatment vs vehicle
# Procedure: Cells were treated with vehicle or iKIX1 and grown with shaking for 16 hours. […] Untreated cells were placed on ice and not treated with ketoconazole or rhodamine 6G. All cells were placed on ice and washed twice with cold YP containing either 5 μM ketoconazole+vehicle (DMSO) or 5 μM ketoconazole+30 μM iKIX1 to remove excess rhodamine 6G. Cells were resuspended in room temperature YP with either 5 μM ketoconazole+vehicle (DMSO) or 5 μM ketoconazole+30 μM iKIX1 and 100 μL was transferred to a 96-well plate. An Envision 2103 Multilabel plate reader was used to assess RFU (relative fluorescence units; excitation 485, emission 535) over 60 minutes at 7.5 minute intervals. Efflux rate was calculated as RFU per second with 7.5 minute windows. Experiments were performed in triplicate, with duplicate readings for each sample; error bars indicate s.d.
smiles,measurement,setting,value
"N#CCC(=O)NNC(=S)Nc1ccc(Cl)c(Cl)c1 [iKIX1, 2-(2-Cyanoacetyl)-N-(3,4-dichlorophenyl)hydrazinecarbothioamide]",ketoconazole-induced CgPdr1 target gene (CgCDR1) transcription (in words),"[1]; CgPDR1 wild-type strain (SFY114), pre-treatment then 40 μM ketoconazole",reduced target gene induction in a durable and concentration-dependent manner
same,Pdr1-target gene induction,"[1]; iKIX1 alone, no azole",did not significantly affect Pdr1-target gene induction
same,azole-induced transcription of CgPdr1 target genes,[1]; isogenic strains with gain-of-function CgPDR1 mutations,"reduced azole-induced transcription of CgPdr1 target genes (e.g., CgCDR1) in a concentration-dependent manner in all strains tested"
same,MIC,[2],25 µM
same,MIC,Candida glabrata DSY565,12.5 µM
same,reductions in fungal burdens in the kidney and spleen,"C. glabrata; CgPDR1^L280F strain, iKIX1 100 mg/kg with 100 mg/kg fluconazole, i.p. once daily, 7 days, P<0.0001",~10 fold
same,fungal burden (CFU/g kidney),"C. glabrata; iKIX1 alone, 100 mg/kg/day",significantly reduces fungal burden; also recorded: more sensitive to iKIX1 alone
same,fungal burden (CFU/g kidney),"C. glabrata; low iKIX1 (10 mg/kg/day) added to fluconazole, 10 mg/kg/day",did not confer additional reductions in CFU/g kidney; also recorded: did not further reduce fungal burden
same,tissue fungal burden in the kidney and spleen,"C. glabrata; […], iKIX1 100 mg/kg co-treatment with 100 mg/kg fluconazole",did not result in further reductions
same,fungal tissue burdens in the spleen or kidney,"C. glabrata; […], iKIX1 combination with fluconazole",reduces fungal tissue burdens in the spleen or kidney
same,"reductions in fungal burdens in both organs (kidney, spleen)","C. glabrata; mouse, in vivo, 25 mg/kg",~10 fold
same,survival of G. mellonella larvae,"[3]; […], fluconazole-iKIX1 combination",no significant alterations in survival
same,survival of G. mellonella larvae,"[3]; […], single agent (fluconazole 50 mg/kg or iKIX1 25 mg/kg) vs vehicle",did not significantly increase survival
same,survival of G. mellonella larvae,[3]; in vivo,significantly increased survival
same,relative adherence to epithelial cells,[4],reduce adherence; also recorded: reduced adherence to levels similar to a PDR1 wild-type strain
same,MIC,Candida glabrata DSY562,12.5 µM
same,in vitro stability and in vivo mouse pharmacokinetics (in words),[5],favorable drug-like properties and in vivo exposure
same,MIC,[6],6.25 µM
same,MIC,Candida krusei DSY471,6.25 µM
same,ketoconazole-induced luciferase activity (in words),[7],able to block this induction in a concentration-dependent manner; also recorded: inhibits ketoconazole (KET)-induced upregulation of luciferase activity in a dose-responsive manner
same,cell growth,S. cerevisiae,inhibits cell growth in a concentration-dependent manner
same,azole sensitivity of growth on gradient plates,"[8]; CgPDR1 gain-of-function mutant strains, compound gradient with fluconazole or ketoconazole",restored azole-sensitivity to PDR1 gain-of-function mutant strains in a concentration-dependent manner
same,growth inhibition on gradient plates,"[8]; CgPDR1 wild-type strains, iKIX1 with azole vs single agents",increased growth inhibition
same,effect on transcription of SREBP-target genes,SREBP-target genes,no effect
same,expression of azole-activated and Pdr1-dependent genes,[9],strongly blunted expression of many azole-activated and Pdr1-dependent genes
same,maximum rhodamine 6G efflux rates,[10],Maximum efflux rates were significantly decreased
